These results are taken from patent US9278934B2, “Method for producing fine particles of aripiprazole anhydride crystals B” (OTSUKA PHARMACEUTICAL CO., LTD., priority 2011, dated 2016).

This series can be described thus: Hygroscopicity: water content before and after 24 hours in a desiccator at 60° C. and humidity 100%. The conditions noted are these: for Water content (%) after 24 hours: after 24 hours in a desiccator at a temperature of 60° C. and a humidity of 100%; for Water content (%) at the start: obtained crystals, before conditioning. It counts as physicochemical. As to the method: Aripiprazole anhydride crystals B have a low hygroscopicity; and, for example, maintain a water content of 0.4% or less, and further 0.1% or less, after 24 hours of conditioning in a desiccator set at a temperature of 60° C. and a humidity of 100%. Known methods for measuring water content can be used as long as they are commonly used for measuring the water content of crystals. For example, a method such as the Karl Fischer method can be used.
Fine particles of the crystals after heating treatment (drying) are the fine particles of anhydride crystals B of aripiprazole. These particles have the physicochemical properties (1) to (5) described above, and also have a low hygroscopicity; specifically, the water content thereof after 24 hours of conditioning in a desiccator adjusted to a temperature of 60° C. and a humidity of 100% is 0.4% or less, further 0.2% or less, and furthremore 0.1% or less.

Turning to `O=C1CCc2ccc(OCCCCN3CCN(c4cccc(Cl)c4Cl)CC3)cc2N1` [Example 3, 7-{4-[4-(2,3-dichlorophenyl)-1-piperazinyl]butoxy}-3,4-dihydrocarbostyril], the “Water content (%) after 24 hours” value was 0.17% and the “Water content (%) at the start” value is reported as 0.08%.
On the same counts, the results for `O=C1CCc2ccc(OCCCCN3CCN(c4cccc(Cl)c4Cl)CC3)cc2N1` [Example 2, 7-{4-[4-(2,3-dichlorophenyl)-1-piperazinyl]butoxy}-3,4-dihydrocarbostyril] are no more than 0.01% and 0.01%.
Take `O=C1CCc2ccc(OCCCCN3CCN(c4cccc(Cl)c4Cl)CC3)cc2N1` [Aripiprazole anhydride crystals B, 7-{4-[4-(2,3-dichlorophenyl)-1-piperazinyl]butoxy}-3,4-dihydrocarbostyril]: the “Water content (%) after 24 hours” value was no more than 0.4%. Moreover, for the setting “listed as anhydride crystals B of aripiprazole”, the “Water content (%) after 24 hours” value was no more than 0.4%.
In the case of `O=C1CCc2ccc(OCCCCN3CCN(c4cccc(Cl)c4Cl)CC3)cc2N1` [Example 1, 7-{4-[4-(2,3-dichlorophenyl)-1-piperazinyl]butoxy}-3,4-dihydrocarbostyril], the “Water content (%) after 24 hours” value is 0.10% and the “Water content (%) at the start” value is listed as 0.11%. The hygroscopicity (left to stand for 24 hours in a desiccator at 60° C. and a humidity of 100%) is on record as less than 4%.
